Experimental data: ChEMBL document CHEMBL4184312, “Discovery of novel CDK inhibitors via scaffold hopping from CAN508” (Bioorg Med Chem Lett, 2018)

Assays:
[1] = target: CDK2/Cyclin A2 (Homo sapiens) (UniProt P24941+P20248); assay: Inhibition of recombinant human CDK2/cyclin A at 10 uM using Ulight-CFFKNIVTPRTPPPSQGK-amide as substrate after 15 mins by fluorescence assay relative to control; format: protein-complex assay
[2] = target: CDK9/cyclin T1 (Homo sapiens) (UniProt O60563+P50750); assay: Inhibition of recombinant human CDK9/cyclin T1 at 10 uM using Ulight-CFFKNIVTPRTPPPSQGK-amide as substrate after 90 mins by fluorescence assay relative to control; format: protein-complex assay
CDK2/Cyclin A2 = CDK2/Cyclin A2 (Homo sapiens, UniProt P24941); assay: Inhibition of recombinant human CDK2/cyclin A using Ulight-CFFKNIVTPRTPPPSQGK-amide as substrate after 15 mins by fluorescence assay relative to control; format: protein-complex assay
Homo sapiens = organism: Homo sapiens; assay: Selectivity ratio of IC50 for recombinant human CDK9/cyclin T1 to IC50 for recombinant human CDK2/cyclin A
CDK9/cyclin T1 = CDK9/cyclin T1 (Homo sapiens, UniProt P50750); assay: Inhibition of recombinant human CDK9/cyclin T1 using Ulight-CFFKNIVTPRTPPPSQGK-amide as substrate after 90 mins by fluorescence assay relative to control; format: protein-complex assay
Chain of CDK9/cyclin T1 (O60563 whole entry): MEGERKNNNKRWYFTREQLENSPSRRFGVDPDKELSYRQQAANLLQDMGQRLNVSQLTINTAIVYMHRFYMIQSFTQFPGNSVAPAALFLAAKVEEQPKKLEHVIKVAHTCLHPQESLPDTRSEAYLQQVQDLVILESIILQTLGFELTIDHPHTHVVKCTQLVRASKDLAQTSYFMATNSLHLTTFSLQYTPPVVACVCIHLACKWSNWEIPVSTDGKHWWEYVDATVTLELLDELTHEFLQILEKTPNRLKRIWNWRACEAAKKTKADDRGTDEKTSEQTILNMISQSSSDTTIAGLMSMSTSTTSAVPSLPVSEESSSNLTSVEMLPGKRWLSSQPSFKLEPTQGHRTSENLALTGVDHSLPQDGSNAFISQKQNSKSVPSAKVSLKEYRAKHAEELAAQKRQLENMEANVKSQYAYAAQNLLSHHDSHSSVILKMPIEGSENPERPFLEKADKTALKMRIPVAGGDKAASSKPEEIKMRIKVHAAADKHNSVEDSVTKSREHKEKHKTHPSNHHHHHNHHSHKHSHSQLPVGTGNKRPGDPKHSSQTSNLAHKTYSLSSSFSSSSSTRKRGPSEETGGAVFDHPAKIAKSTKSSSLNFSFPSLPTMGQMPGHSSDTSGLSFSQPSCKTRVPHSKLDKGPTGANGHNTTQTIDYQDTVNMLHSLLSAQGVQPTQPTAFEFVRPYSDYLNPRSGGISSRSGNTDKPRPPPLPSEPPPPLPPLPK
Chain of CDK9/cyclin T1 (P50750 whole entry): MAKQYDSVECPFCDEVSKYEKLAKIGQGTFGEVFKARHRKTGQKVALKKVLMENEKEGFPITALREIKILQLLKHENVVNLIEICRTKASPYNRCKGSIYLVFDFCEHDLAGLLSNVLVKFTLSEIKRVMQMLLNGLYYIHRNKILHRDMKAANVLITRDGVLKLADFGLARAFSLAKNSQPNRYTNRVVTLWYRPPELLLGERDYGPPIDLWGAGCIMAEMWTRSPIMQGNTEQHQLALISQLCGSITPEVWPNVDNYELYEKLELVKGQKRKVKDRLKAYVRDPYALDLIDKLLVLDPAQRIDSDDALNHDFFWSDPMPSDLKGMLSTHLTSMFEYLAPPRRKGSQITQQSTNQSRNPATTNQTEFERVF

Row | SMILES | inhibition [1] [%] | inhibition [2] [%] | IC50 (CDK2/Cyclin A2) [µM] | Ratio IC50 (Homo sapiens) | IC50 (CDK9/cyclin T1) [µM]
1 | O=C(CCN1CCOCC1)Nc1n[nH]c2ncc(-c3ccc(O)cc3)cc12 | 44 | 21 | – | – | –
2 | CCC(CC)C(=O)Nc1n[nH]c2ncc(-c3ccc(O)cc3)cc12 | 63 | 12 | 2 | 265 | 529
3 | Nc1n[nH]c(N)c1/N=N/c1ccc(O)cc1 | – | – | 13.1 | – | –
4 | Nc1n[nH]c2ncc(-c3cncnc3)cc12 | 33 | 50 | – | – | –
5 | Nc1n[nH]c2ncc(-c3ccc(F)cc3)cc12 | 51 | 38 | – | – | –
6 | O=C(Nc1n[nH]c2ncc(-c3cncnc3)cc12)C1CCCCC1 | 96 | 83 | 0.36 | – | 1.8
7 | O=C(Nc1n[nH]c2ncc(-c3cccc(O)c3)cc12)C1CCCCC1 | 63 | 62 | – | – | –
8 | O=C(Nc1n[nH]c2ncc(-c3ccc(CO)cc3)cc12)C1CCCCC1 | 34 | 31 | – | – | –
9 | Nc1n[nH]c2ncc(-c3ccc(O)cc3)cc12 | 58 | 48 | – | – | –
10 | O=C(Cc1ccccc1)Nc1n[nH]c2ncc(-c3ccc(O)cc3)cc12 | 70 | 25 | – | – | –
11 | CN(C)CCC(=O)Nc1n[nH]c2ncc(-c3ccc(O)cc3)cc12 | 59 | 48 | – | – | –
12 | CNCC(=O)Nc1n[nH]c2ncc(-c3ccc(O)cc3)cc12 | 68 | 64 | – | – | –
13 | CC(C)c1ccc(-c2cnc3[nH]nc(N)c3c2)cc1 | < 10 | < 10 | – | – | –
14 | O=C(Nc1n[nH]c2ncc(-c3ccccc3O)cc12)C1CCCCC1 | 80 | 78 | – | – | 3.6
15 | O=C(O)c1ccc(-c2cnc3[nH]nc(NC(=O)C4CCCCC4)c3c2)cc1 | < 10 | < 10 | – | – | –
16 | CCC(=O)Nc1n[nH]c2ncc(-c3ccc(O)cc3)cc12 | 90 | 70 | 0.82 | – | 2.4
17 | CCCCC(=O)Nc1n[nH]c2ncc(-c3ccc(O)cc3)cc12 | 87 | 73 | – | – | 3.5
18 | CN(C)CC(=O)Nc1n[nH]c2ncc(-c3ccc(O)cc3)cc12 | 52 | 56 | – | – | –
19 | O=C(Nc1n[nH]c2ncc(-c3ccc(F)cc3)cc12)C1CCCCC1 | < 10 | 32 | – | – | –
20 | O=C(Nc1n[nH]c2ncc(-c3ccncc3)cc12)C1CCCCC1 | 59 | 59 | – | – | –
21 | O=C(CCCl)Nc1n[nH]c2ncc(-c3ccc(O)cc3)cc12 | 98 | 73 | 0.66 | – | 2.4
22 | CN1CCN(CCC(=O)Nc2n[nH]c3ncc(-c4ccc(O)cc4)cc23)CC1 | 51 | 49 | – | – | –
23 | O=C(Nc1n[nH]c2ncc(-c3ccc([N+](=O)[O-])cc3)cc12)C1CCCCC1 | < 10 | < 10 | – | – | –
24 | O=C(Nc1n[nH]c2ncc(-c3ccc(O)cc3)cc12)C1CCCCC1 | 86 | 70 | – | – | 10.4
25 | N#Cc1ccc(-c2cnc3[nH]nc(NC(=O)C4CCCCC4)c3c2)cc1 | < 10 | < 10 | – | – | –
26 | CNCCC(=O)Nc1n[nH]c2ncc(-c3ccc(O)cc3)cc12 | 39 | 64 | – | – | –
27 | COc1ccc(-c2cnc3[nH]nc(N)c3c2)cc1 | < 10 | < 10 | – | – | –
28 | CC(C)CC(=O)Nc1n[nH]c2ncc(-c3ccc(O)cc3)cc12 | 54 | 19 | – | – | –
29 | CC(C)(C)CC(=O)Nc1n[nH]c2ncc(-c3ccc(O)cc3)cc12 | 77 | 59 | – | – | –
